According to patent US20120245099A1, “APOPTOSIS INDUCER” (NIHON UNIVERSITY, priority 2009, published 2012):

How the values were obtained:
Cos cells [1] = assay: Recombinant E3 protein added to cultured Cos cells, H33342 staining (Example 8); type: cell-based; details: recombinant protein from E. coli, 24 hours after addition
Procedure: To cultured Cos cells, a recombinant E3 protein produced from transformed E. coli was added. At 24 hours after addition, the cells were stained with H33342 and observed under a phase contrast microscope and a fluorescent microscope.

Cos cells [2] = assay: Concentration dependence of recombinant E3 protein, LDH activity in culture supernatant (Example 10); type: cell-based; details: 24 hours after addition
Procedure: A recombinant E3 protein produced from transformed E. coli was added at different concentrations (0 to 2.0 ng/ml) to cultured Cos cells. At 24 hours after addition, the culture supernatants were each measured for LDH activity.

[3] = system: CRL cells (human melanoma cells); assay: Recombinant E3 protein added to cells, LDH activity in culture supernatant (Example 11); type: cell-based; details: CRL cells (adherent), 1 ng/ml or 5 ng/ml, 24 hours after addition
[4] = system: P5 cells (vascular endothelial cell line); assay: as above; type: cell-based; details: P5 cells (adherent), 1 ng/ml or 5 ng/ml, 24 hours after addition
Cos cells [5] = assay: LDH activity in supernatant of Cos cells transformed with E3, E3 mutants or F IX EGF domain (Example 9); type: cell-based; details: APtag4 vector, medium replaced 4 hours after gene transfer, measured after further 24 hours
Source text: cDNA for E3 (a part of Del-1) or an amino acid substitution mutant thereof was integrated into an AP expression vector (APtag4) and then introduced into cultured Cos cells. Likewise, cDNA for the EGF domain of blood coagulation factor IX (F IX; cDNA: SEQ ID NO: 24, amino acid sequence: SEQ ID NO: 25) was also integrated into APtag4 and then introduced into cultured Cos cells. As a control, an AP expression vector free from the above cDNAs for E3 and so on was used. It should be noted that the amino acid substitution mutants of E3 used for the above purpose were E3 D136E (cDNA: SEQ ID NO: 34, amino acid sequence: SEQ ID NO: 35), E3 D136N (cDNA: SEQ ID NO: 36, amino acid sequence: SEQ ID NO: 37) and E3 Y141F (cDNA: SEQ ID NO: 38, amino acid sequence: SEQ ID NO: 39). […] At 4 hours after gene transfer, the medium in each case was replaced with fresh culture medium and, after further 24 hours, the supernatant was measured for LDH activity. A cell lysate was prepared for each case and measured for LacZ activity. […]

[6] = system: MEL cells (mouse leukemia cells); assay: Recombinant E3 protein added to cells, LDH activity in culture supernatant (Example 11); type: cell-based; details: MEL cells (floating), 1 ng/ml or 5 ng/ml, 24 hours after addition
Cos cells [7] = assay: LDH activity in supernatant of Cos cells transformed with cDNA for Del-1 or its parts (Example 7); type: cell-based; details: APtag4 vector, medium replaced 24 hours after gene transfer, measured after further one hour
Source text: cDNA for full-length Del-1 (SEQ ID NO: 4) was integrated into an AP expression vector (APtag4) and then introduced into cultured Cos cells. Likewise, cDNA for a part of Del-1 was also integrated into APtag4 and then introduced into cultured Cos cells. As a control, an AP expression vector free from the above cDNA for full-length Del-1 or a part thereof was used. It should be noted that the members each used as a part of Del-1 were EGF-like domains in the full-length Del-1 protein, i.e., EGF1 (E1; cDNA: SEQ ID NO: 26, amino acid sequence: SEQ ID NO: 27), EGF2 (E2; cDNA: SEQ ID NO: 28, amino acid sequence: SEQ ID NO: 29) and EGF3 (E3; cDNA: SEQ ID NO: 6, amino acid sequence: SEQ ID NO: 7), a fusion protein between discoidin I-like domains, i.e., Discoidin1 and Discoidin2 (C1C2; cDNA: SEQ ID NO: 30, amino acid sequence: SEQ ID NO: 31), an amino acid substitution (D136E) mutant of the above full-length Del-1 (Del1m; cDNA: SEQ ID NO: 32, amino acid sequence: SEQ ID NO: 33), as well as an amino acid substitution (D136E) mutant of E3, i.e., E3 D136E (E3m; cDNA: SEQ ID NO: 34, amino acid sequence: SEQ ID NO: 35). […] At 24 hours after gene transfer, the medium in each case was replaced with fresh culture medium and, after further one hour, the supernatant was measured for LDH activity. A cell lysate was prepared for each case and measured for LacZ activity. […]

[8] = system: SCCKN cells (human oral squamous cell carcinoma-derived cell line); assay: Tumor-transplanted model mice, intratumoral gene transfer, tumor size over time (Example 12); type: in vivo; details: nude mice with SCCKN tumors, 10 μg DNA, Day0 to Day7
Procedure: For measurement of tumor size, the long axis and short axis of each tumor were measured with a ruler and multiplied by each other. In the figure, the tumor size (vertical axis) is expressed as a relative value (mean±SD), assuming that the value obtained at the time of gene transfer is set to 1.
Using tumor-transplanted model mice, a peptide containing the EGF3 domain, which is a part of Del-1, was studied for its therapeutic effect on tumor. More specifically, this peptide was verified as to whether its combined use with the FasL (Fas ligand) protein, whose antitumor effect has already been established, would enhance the antitumor effect when compared to FasL alone. […]
Then, 5×10^6 SCCKN cells (human oral squamous cell carcinoma-derived cell line) were injected under the dorsal skin of nude mice at 5 weeks of age. The mice were then measured over time for their tumor size. […]
The tumor size after gene transfer was measured over time (for 7 days: Day0 to Day7), and the results obtained are shown in FIG. 12.

With “E3: EGF3 EGF-like domain of Del-1, amino acids 123-157, SEQ ID NO: 7 (CEAEPCRNGGICTDLVANYSCECPGEFMGRNCQYK; listed as Mus musculus)” the “chromosome aggregation (H33342 nuclear staining)” value (Cos cells [1]) was “chromosomes were aggregated”, the “E3 protein concentration effective for apoptosis induction (LDH activity)” value (Cos cells [2]; 0 to 2.0 ng/ml) was ≥ 0.4 ng/mL and the “E3 protein concentration above which the effect on apoptosis induction remained unchanged” value (Cos cells [2]) was “higher than 1 ng/ml”. The “cytotoxic activity (apoptosis induction), LDH activity” value [3] was “showed cytotoxic activity”, the “cytotoxic activity (apoptosis induction), LDH activity” value [4] was “showed cytotoxic activity” and the “LDH activity of supernatant, normalized by LacZ activity” value (Cos cells [5]) was “high LDH activity”. For the same molecule, the “cytotoxic activity, LDH activity” value [6] was “no cytotoxic activity”.

For “E3m: amino acid substitution (D136E) mutant of E3, SEQ ID NO: 35 (CEAEPCRNGGICTELVANYSCECPGEFMGRNCQYK; listed as Mus musculus)”, the “increase in LDH activity of supernatant, normalized by LacZ activity” value (Cos cells [7]) was “lost”.

In the case of “F IX: EGF domain of blood coagulation factor IX, SEQ ID NO: 25 (CESNPCLNGGICKDDISSYECWCQVGFEGRNCEL; listed as Mus musculus)”, the “LDH activity of supernatant, normalized by LacZ activity” value (Cos cells [5]) is reported as “high LDH activity”.

B1: E3C1: fusion peptide between EGF3 domain and Discoidin1, amino acids 123 to 319 of mouse Del-1, SEQ ID NO: 42 (protein, listed as Mus musculus)
chain: CEAEPCRNGGICTDLVANYSCECPGEFMGRNCQYKCSGPLGIEGGIISNQQITASSTHRALFGLRKWYPYYARLNKKGLINAWTAAENDRWPWIQINLQRKMRVTGVITQGAKRIGSPEYIKSYKIAYSNDGKTWAMYKVKGTNEEMVFRGNVDNNTPYANSFTPPIKAQYVRLYPQICRRHCTLRMELLGCELSGC
In the case of B1, the “antitumor effect (tumor size) of E3C1 cDNA together with FasL cDNA compared with FasL alone” value [8] is reported as “higher antitumor effect”.
